Patent publication US20190075794A1, “BIODEGRADABLE ANTIMICROBIAL COMPOSITIONS AND USES THEREOF TO COMBAT MICROORGANISMS” (IPABC LTD, priority 2015, published 2019)

Tests used:
[1] = at 20° C.; cited from earlier work
E. coli = assay: Assay for antimicrobial activity: test solution incubated with 10^6 CFUs bacteria, neutralised, plated, growth assessed after 24 hours; assay type: cell-based; parameters: key to Growth of E. coli 24 hrs after treatment, 1:100 dilution of bacterial reaction mixture / Growth of E. coli 24 hrs after treatment, 1:1000 dilution of bacterial reaction mixture / Growth of E. coli 24 hrs after treatment, 1:10 dilution of bacterial reaction mixture: + plates with microbial growth; − for plates that had no growth; conditions: for Growth of E. coli 24 hrs after treatment, 1:100 dilution of bacterial reaction mixture / Growth of E. coli 24 hrs after treatment, 1:1000 dilution of bacterial reaction mixture / Growth of E. coli 24 hrs after treatment, 1:10 dilution of bacterial reaction mixture: 10^6 CFUs, 30 min RT; for Concentration at which growth of E. coli is inhibited: 30 min treatment
Protocol: • APG: AG6210 (Akzo Nobel Surface Chemistry AB) 60% aqueous solution of a 60:40 mixture of decyl-β-D-glucopyranoside and octyl-β-D-glucopyranoside • Decyl-β-D-glucopyranoside—EC number: 259-218-1; CAS number: 54549-25-6 • Octyl-β-D-glucopyranoside—EC number: 414-420-0; CAS number: 108081-06-7 • ε-polylysine: Zhengzhou Bainafo Co., Ltd. […] L(+)-lactic acid. […] CAS number: 79-33-4 • Neutraliser (NF): 30 ml Tween 80, 30 g saponine, 1 g histidine, 1 g cysteine dissolved in 1000 ml water; sterilised by autoclaving. • RBT 24/7: Residual Barrier Technology. Proprietary antimicrobial surface sanitizer. • Culture media: Oxoid plate count agar (CM0463): […]

[2] = Table 1: L(+)-lactic acid alone, listed as 250 mM L(+)-Lactic Acid
[3] = Table 1: L(+)-lactic acid alone, listed as 500 mM L(+)-Lactic Acid
[4] = Table 1: L(+)-lactic acid alone, listed as 1M L(+)-Lactic Acid, 1M L(+)-lactic acid
[5] = Table 1: L(+)-lactic acid alone, listed as 2M L(+)-Lactic Acid, 2M L(+)-lactic acid
[6] = acid(s) alone, printed as cannot inhibit growth when used at up to, combined concentration for lactic + citric

Row | Compound | CMC [1] | Growth of E. coli 24 hrs after treatment, 1:100 dilution of bacterial reaction mixture (E. coli; Table 1: L(+)-lactic acid alone, listed as 100 mM L(+)-Lactic Acid) | Growth of E. coli 24 hrs after treatment, 1:1000 dilution of bacterial reaction mixture (E. coli; Table 1: L(+)-lactic acid alone, listed as 100 mM L(+)-Lactic Acid, 100 mM L(+)-lactic acid) | Growth of E. coli 24 hrs after treatment, 1:10 dilution of bacterial reaction mixture (E. coli; [2]) | Growth of E. coli 24 hrs after treatment, 1:100 dilution of bacterial reaction mixture (E. coli; [2]) | Growth of E. coli 24 hrs after treatment, 1:1000 dilution of bacterial reaction mixture (E. coli; Table 1: L(+)-lactic acid alone, listed as 250 mM L(+)-Lactic Acid, 250 mM L(+)-lactic acid) | Growth of E. coli 24 hrs after treatment, 1:10 dilution of bacterial reaction mixture (E. coli; [3]) | Growth of E. coli 24 hrs after treatment, 1:100 dilution of bacterial reaction mixture (E. coli; [3]) | Growth of E. coli 24 hrs after treatment, 1:1000 dilution of bacterial reaction mixture (E. coli; Table 1: L(+)-lactic acid alone, listed as 1M L(+)-Lactic Acid) | Growth of E. coli 24 hrs after treatment, 1:10 dilution of bacterial reaction mixture (E. coli; [4]) | Growth of E. coli 24 hrs after treatment, 1:100 dilution of bacterial reaction mixture (E. coli; [4]) | Growth of E. coli 24 hrs after treatment, 1:1000 dilution of bacterial reaction mixture (E. coli; Table 1: L(+)-lactic acid alone, listed as 2M L(+)-Lactic Acid) | Growth of E. coli 24 hrs after treatment, 1:10 dilution of bacterial reaction mixture (E. coli; [5]) | Growth of E. coli 24 hrs after treatment, 1:100 dilution of bacterial reaction mixture (E. coli; [5]) | Concentration at which growth of E. coli is inhibited (E. coli; [6]) | Concentration at which growth of E. coli is inhibited (E. coli; lactic acid alone) | Growth of E. coli 24 hrs after treatment, 1:1000 dilution of bacterial reaction mixture (E. coli; Table 2: citric acid alone, listed as 50 mM Citric Acid)
1 | CCCCCCCCCCO[C@@H]1O[C@H](CO)[C@@H](O)[C@H](O)[C@H]1O [decylglucoside, Decyl-β-D-glucopyranoside] | approximately 300 ppm |  |  |  |  |  |  |  |  |  |  |  |  |  |  |  | 
2 | C[C@H](O)C(=O)O [L(+)-Lactic Acid, L(+)-lactic acid] |  | + | + | + | + | − | + | + | − | + | + | − | − | − | > 40 mM | at least 1 M | 
3 | O=C(O)CC(O)(CC(=O)O)C(=O)O [Citric Acid, Citric acid] |  |  |  |  |  |  |  |  |  |  |  |  |  |  | > 50 mM |  | +
